Measurements taken from ChEMBL document CHEMBL1143871, “Small P-gp modulating molecules: SAR studies on tetrahydroisoquinoline derivatives” (Bioorg Med Chem, 2008).

Assays:
[1] = target: T1, ATP-dependent translocase ABCB1 (Homo sapiens, UniProt P08183); experiment: Activation of human Pgp ATPase in human Caco-2 cells at 100 uM; type: cell-based; details: caco-2, 100 µM
[2] = Ratio of apparent permeability from basolateral to apical over apical to basolateral side of human Caco-2 cell membrane
[3] = Apparent permeability from apical to basolateral side of human Caco-2 cell membrane; type: ADME, cell-based
[4] = Apparent permeability from basolateral to apical side of human Caco-2 cell membrane; type: ADME, cell-based
[5] = target: T1, ATP-dependent translocase ABCB1; experiment: Inhibition of human Pgp mediated [3H]vinblastine transport in human Caco-2 cells; type: cell-based
MCF7 [6] = experiment: Antiproliferative activity against adriamycin resistant human MCF7 cells assessed by MTT assay at 100 uM after 48 hrs
MCF7 [7] = experiment: Cytotoxic activity against adriamycin resistant human MCF7 cells assessed as LDH release at 100 uM after 24 hrs; type: functional
[8] = target: T1, ATP-dependent translocase ABCB1; experiment: Inhibition of human Pgp in adriamycin resistant MCF7 cells assessed as fold increase in accumulation of doxorubicin at 20 uM relative to control; type: cell-based; details: mcf7, 20 µM

T1 sequence (P08183 whole entry): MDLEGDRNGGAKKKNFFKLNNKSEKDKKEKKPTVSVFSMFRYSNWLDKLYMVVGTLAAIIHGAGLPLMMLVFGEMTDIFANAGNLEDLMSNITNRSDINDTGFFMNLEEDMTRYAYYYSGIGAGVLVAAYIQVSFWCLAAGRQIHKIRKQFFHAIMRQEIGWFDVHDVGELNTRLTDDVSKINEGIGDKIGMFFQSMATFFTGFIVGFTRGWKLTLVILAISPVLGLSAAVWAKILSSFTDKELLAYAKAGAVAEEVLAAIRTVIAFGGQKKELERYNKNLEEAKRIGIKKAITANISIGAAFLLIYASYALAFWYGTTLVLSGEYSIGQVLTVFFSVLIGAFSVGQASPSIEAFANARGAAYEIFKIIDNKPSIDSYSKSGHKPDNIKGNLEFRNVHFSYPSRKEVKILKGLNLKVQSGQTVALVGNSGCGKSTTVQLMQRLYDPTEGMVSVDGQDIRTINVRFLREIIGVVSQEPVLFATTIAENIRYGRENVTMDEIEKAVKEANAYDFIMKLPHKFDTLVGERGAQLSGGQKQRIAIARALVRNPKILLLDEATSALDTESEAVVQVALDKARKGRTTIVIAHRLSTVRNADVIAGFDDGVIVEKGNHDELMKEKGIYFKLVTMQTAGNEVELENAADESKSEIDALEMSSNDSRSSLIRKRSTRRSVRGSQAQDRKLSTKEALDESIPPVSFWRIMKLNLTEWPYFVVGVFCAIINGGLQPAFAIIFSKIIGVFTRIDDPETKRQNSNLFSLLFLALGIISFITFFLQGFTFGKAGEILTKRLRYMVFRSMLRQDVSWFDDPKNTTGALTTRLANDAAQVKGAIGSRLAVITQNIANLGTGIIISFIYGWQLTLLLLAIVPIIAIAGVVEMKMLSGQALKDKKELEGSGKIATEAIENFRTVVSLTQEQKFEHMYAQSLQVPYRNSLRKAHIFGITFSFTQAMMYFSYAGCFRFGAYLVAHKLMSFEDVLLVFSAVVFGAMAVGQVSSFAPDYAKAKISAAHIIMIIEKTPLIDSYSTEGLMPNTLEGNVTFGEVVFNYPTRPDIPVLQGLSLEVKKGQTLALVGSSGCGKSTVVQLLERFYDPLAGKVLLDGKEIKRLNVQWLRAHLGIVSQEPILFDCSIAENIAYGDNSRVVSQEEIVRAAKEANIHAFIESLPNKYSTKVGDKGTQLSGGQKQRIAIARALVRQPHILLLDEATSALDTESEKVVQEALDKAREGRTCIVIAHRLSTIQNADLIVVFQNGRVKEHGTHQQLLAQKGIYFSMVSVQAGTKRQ

| Structure (SMILES) | Activity [1] | efflux ratio [2] | Papp A→B [3] | Papp B→A [4] | EC50 [5] | Activity (MCF7 [6]) | Activity (MCF7 [7]) | Activity [8] |
| --- | --- | --- | --- | --- | --- | --- | --- | --- |
| COc1ccc2c(c1)C(CCCN1CCc3cc(OC)c(OC)cc3C1)=CCC2 | 20% | 5.4 | 61 ×10⁻⁶ cm/s | 332 ×10⁻⁶ cm/s | 35.5 µM | – | – | – |
| COc1cccc2c1CCC/C2=C\CCN1CCCCC1 | – | 4.4 | 58.4 ×10⁻⁶ cm/s | 256 ×10⁻⁶ cm/s | 8.2 µM | – | – | – |
| COc1cc2c(cc1OC)CN(CCCC1CCCc3cc(OC)c(OC)cc31)CC2 (stereo not drawn) | 62% | 5.1 | 86.8 ×10⁻⁶ cm/s | 440 ×10⁻⁶ cm/s | 17.9 µM | – | – | – |
| COc1cc2c(cc1OC)CN(CCC=C1CCCCC1)CC2 | – | 3.1 | 77.4 ×10⁻⁶ cm/s | 240 ×10⁻⁶ cm/s | 15.2 µM | – | – | – |
| COc1cc2c(cc1OC)CN(CCCC1=CCCc3c(OC)cccc31)CC2 | 30% | 7.1 | 16 ×10⁻⁶ cm/s | 114 ×10⁻⁶ cm/s | 15 µM | – | – | – |
| COc1cc2c(cc1OC)CN(CCCC1=CCCc3cc(OC)c(OC)cc31)CC2 | 15% | 1.5 | 67.2 ×10⁻⁶ cm/s | 103 ×10⁻⁶ cm/s | 31.6 µM | – | – | – |
| COc1ccc2c(c1)CCCC2CCCN1CCc2cc(OC)c(OC)cc2C1 (stereo not drawn) | 27% | 4.2 | 82.8 ×10⁻⁶ cm/s | 351 ×10⁻⁶ cm/s | 8.15 µM | – | – | – |
| COc1ccc2c(c1)/C(=C/CCN1CCc3cc(OC)c(OC)cc3C1)CCC2 | – | 3.9 | 166 ×10⁻⁶ cm/s | 657 ×10⁻⁶ cm/s | 4.86 µM | <20% | <20% | 4.1 |
| COc1ccc2c(c1)C(CCCN1CCc3cc(OC)c(OC)cc3C1)CCC2 (stereo not drawn) | 15% | 3.7 | 46 ×10⁻⁶ cm/s | 170 ×10⁻⁶ cm/s | 10.2 µM | – | – | – |
| COc1cc2c(cc1OC)CN(CCCC1CCCc3c(OC)cccc31)CC2 (stereo not drawn) | 70% | 18 | 5.6 ×10⁻⁶ cm/s | 104 ×10⁻⁶ cm/s | 6.35 µM | <20% | <20% | 4.8 |
| COc1ccc2c(c1)CCC=C2CCCN1CCc2cc(OC)c(OC)cc2C1 | – | 3.7 | 40.7 ×10⁻⁶ cm/s | 151 ×10⁻⁶ cm/s | 83.7 µM | – | – | – |
| COc1cccc2c1CCCC2CCCN1CCN(C2CCCCC2)CC1 (stereo not drawn) | – | 1.7 | 250 ×10⁻⁶ cm/s | 436 ×10⁻⁶ cm/s | 0.55 µM | – | – | – |
| COc1cc2c(cc1OC)CN(CC/C=C1\CCCc3c(OC)cccc31)CC2 | – | 1.6 | 23.7 ×10⁻⁶ cm/s | 38.6 ×10⁻⁶ cm/s | 1.64 µM | 25% | <20% | 5.7 |
